Laboratory results taken from patent US20080132412A1, “7-Amino-6-Heteroaryl-1,2,4-Triazolo[1,5-A]Pyrimidines and Their Use for Controlling Harmful Fungi” (BASF Aktiengesellschaft, priority 2004, published 2008).

Tested on: Septoria tritici
Experiment: Speckled leaf blotch pathogen Septoria tritici in the microtiter test
Assay type: cell-based
Details: 125 ppm, microtiter plate, absorption at 405 nm on day 7 after inoculation
Description: The stock solution is pipetted into a microtiter plate (MTP) and diluted to the stated active compound concentration using an aqueous, malt-based nutrient medium for fungi. An aqueous spore suspension of Septoria tritici was then added. The plates were placed in a water vapor-saturated chamber at temperatures of 18° C. Using an absorption photometer, the MTPs were measured at 405 nm on day 7 after the inoculation. The parameters measured were compared to the growth of the active compound-free control variant and the fungus- and active compound-free blank value to determine the relative growth in % of the pathogens in the individual active compounds. The relative growth at 125 ppm of compound 1 was 0%.

SMILES: Cc1nc2ncnn2c(N2CCC(C)CC2)c1-c1ncncc1Cl [compound 1, 6-(5-chloropyrimidin-4-yl)-5-methyl-7-(4-methylpiperidin-1-yl)-[1,2,4]triazolo[1,5-a]pyrimidine]
- relative growth: 0%
